Publication PMC11820358 (Molecules, 2025)
Entries after “also recorded” stand apart in the source; their conditions may differ.

How the values were obtained:
chymotrypsin [1] = experiment: chymotrypsin in HEPES buffer solution (50 mM, pH = 7.4); conditions: 37 °C, up to 8 h
pepsin = pepsin in HEPES buffer (50 mM, pH=7.4); conditions: 37 °C, up to 8 h
papain = papain in HEPES buffer (50 mM, pH=7.4); conditions: 37 °C, up to 8 h
chymotrypsin [2] = target: T1, chymotrypsin (Bos taurus, UniProt P00766); experiment: LC-MS analysis of enzymatic fragments and cleavage sites with chymotrypsin; format: in vitro ADME; set-up: purchased; conditions: LC-MS (ESI); HEPES 50 mM pH 7.4, 37 °C, peptide:protease 40:1
Procedure: To further investigate how glycosylation promotes the enzymatic digestion of D-amino acid-containing peptides, we analyzed the enzymatic cleavage sites of the glycosylated peptides using LC-MS (Figures S6–S14).
(β-D-GalNAc ) (H) in the presence of chymotrypsin. The peptides were dissolved in HEPES
Chymotrypsin was added to the above solution. In which the peptide: protease (ω: ω) = 40:1.
Incubation was performed at 37°C. Method of stopping enzymatic digestion after reaching
reaction time: Chymotrypsin is extinguished with 1% TFA. Each experiment was performed

Proteinase K (PROK) = target: T2, Proteinase K (PROK) (Parengyodontium album, UniProt P06873); experiment: Enzymatic degradation by Proteinase K (PROK), protease resistance; format: in vitro ADME; conditions: peptide 0.5 mg/mL in HEPES 50 mM pH 7.4 (600 μL) + PROK 1.5 mg/mL (15.0 μL); 50 °C; 0-8 h; quenched with 1% TFA; HPLC 215 nm; three times; Figure 4
T2 construct: purchased
T2 sequence (P06873 106-384): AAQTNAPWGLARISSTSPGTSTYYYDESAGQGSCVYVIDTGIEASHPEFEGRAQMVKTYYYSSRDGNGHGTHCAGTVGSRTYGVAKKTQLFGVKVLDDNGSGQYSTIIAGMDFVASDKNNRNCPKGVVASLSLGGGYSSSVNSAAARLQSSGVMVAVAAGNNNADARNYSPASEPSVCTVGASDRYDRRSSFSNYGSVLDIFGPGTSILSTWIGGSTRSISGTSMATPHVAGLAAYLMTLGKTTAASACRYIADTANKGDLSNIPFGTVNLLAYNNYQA
Procedure: The peptides were dissolved in HEPES buffer (50 mM, pH = 7.4) to a final concentration of 0.5 mg/mL. Proteinase K (PROK) was prepared in deionized water at a final concentration of 1.5 mg/mL. The peptide solutions (600 μL) were then incubated with PROK solution (15.0 μL) at 50 °C. At 0, 0.5, 1.0, 2.0, 4.0, and 8.0 h intervals, 100 μL of the digestion mixture was taken and quenched with 100 μL of 1% TFA in water. The enzymatic hydrolysis of peptides was monitored by HPLC at 215 nm. Each experiment was performed three times.

chymotrypsin [3] = target: T1, chymotrypsin; experiment: Enzymatic degradation by chymotrypsin, substrate decay followed by HPLC; conditions: 37 °C; for Substrate decay rate constant in the presence of chymotrypsin: peptide 0.5 mg/mL in HEPES 50 mM pH 7.4, chymotrypsin 0.5 mg/mL, peptide:protease 40:1 (w/w), stopped with 1% TFA, HPLC-UV 215 nm, fit y=A0×exp(−k1×x), each experiment three times, Figure 7; for Enzymatic degradation by chymotrypsin, compared with 5-t: peptide 0.5 mg/mL, HEPES 50 mM pH 7.4, chymotrypsin 0.5 mg/mL, 40:1 (w/w), up to 8 h, HPLC, three times, Figures 5C, 6
[4] = RP-HPLC retention time of peptides (hydrophobicity/polarity); format: physicochemical; conditions: chromatographic, C18 reversed phase, 0.1% TFA water/acetonitrile, gradient 10-50% solvent B over 30 min, 1 mL/min, UV; used as measure of hydrophobicity/polarity; Figure 3D
Procedure: Purification was performed on a ZORBAX Eclipse XDB-C18 reversed-phase column (5 μm, 9.4 × 250 mm, Agilent, Santa Clara, CA, USA) using solvent A (0.1% TFA in water) and solvent B (0.1% TFA in acetonitrile). Elution was performed at a flow rate of 1 mL/min with a gradient of 10–50% solvent B over 30 min, and detection was carried out using a UV detector at 220 nm. All purified peptide samples were freeze-dried to yield a white powder.

cleaved bond (chymotrypsin [1]) | Cleavage sites in the presence of chymotrypsin (chymotrypsin [2]) | Substance | Enzymatic fragments in the presence of chymotrypsin (chymotrypsin [2]) | also measured
Tyr2-Asn3; also recorded: Arg7-Ser8 | – | KYNE(t-β-D-Gal)WRSED | – | –
Tyr2-Asn3; also recorded: Arg7-Ser8 | – | KYNEtWRSED | – | not cleaved (pepsin): no enzymatic degradation; substrate molar fraction 1.0 at 8 h; not cleaved (papain): no enzymatic degradation; substrate molar fraction 1.0 at 8 h
Tyr2-Asn3; also recorded: Arg7-Ser8 | – | KYNE(t-β-D-Glc)WRSED | – | not cleaved (pepsin): no enzymatic degradation; substrate molar fraction 1.0 at 8 h; not cleaved (papain): no enzymatic degradation; substrate molar fraction 1.0 at 8 h
Tyr2-Asn3; also recorded: Arg7-Ser8 | – | KYNE(t-β-D-Glc)WR(S-β-D-Glc)ED | – | –
Tyr2-Asn3; also recorded: Arg7-Ser8 | – | KYNE(t-β-L-Rib)WRSED | – | –
– | Tyr2-Asn3, Arg7-Ser8 | KYNE(t-α-D-Glc)WRSED [5-t-(α-D-Glc)] | KY, NE-(t-α-D-Glc)-WR, NE-(t-α-D-Glc)-WRSED, SED | –
Tyr2-Asn3; also recorded: Arg7-Ser8 | – | KYNEtWR(S-β-D-Glc)ED | – | –
– | Tyr2-Asn3, Arg7-Ser8 | KYNE(t-β-D-Rib)WRSED [5-t-(β-D-Rib)] | KY, KYNE-(t-β-D-Rib)-WR, NE-(t-β-D-Rib)-WR, NE-(t-β-D-Rib)-WRSED, SED | Substrate decay rate constant in the presence of chymotrypsin (chymotrypsin [3]): 0.187 h⁻¹; Enzymatic degradation by chymotrypsin, compared with 5-t (chymotrypsin [3]): digested more efficiently than 5-t
Tyr2-Asn3; also recorded: Arg7-Ser8 | – | KYNE(t-β-D-Rib)WRSED | – | –
– | Tyr2-Asn3, Arg7-Ser8 | KYNE(t-β-D-Gal)WRSED [5-t-(β-D-Gal)] | KY, NE-(t-β-D-Gal)-WR, NE-(t-β-D-Gal)-WRSED, SED | –
– | Tyr2-Asn3, Arg7-Ser8 | KTNE(t-β-D-Gal-NAc)WRSED [5-t-(β-D-GalNAc)] | KY, NE-(t-β-D-GalNAc)-WR, NE-(t-β-D-Gal-NAc)-WRSED, SED | Substrate decay rate constant in the presence of chymotrypsin (chymotrypsin [3]): 0.106 h⁻¹
– | – | KYNE(t-β-D-Glc-Ac4)WRSED [5-t-(β-D-Glc-Ac4)] | – | Retention time in RP-HPLC [4]: 21.481 min
– | Tyr2-Asn3, Arg7-Ser8 | KYNEtWRSED [5-t] | KY, NE-t-WR, NE-t-WRSED, SED | Substrate decay rate constant in the presence of chymotrypsin (chymotrypsin [3]): 0.103 h⁻¹
Arg7-Ser8 | – | KTNE(t-β-D-Gal-NAc)WRSED | – | –
Arg7-Ser8; also recorded: Tyr2-Asn3 | – | KYNE(t-α-D-Glc)WRSED | – | –

Substance | cleaved bond (chymotrypsin [1]) | Cleavage sites in the presence of chymotrypsin (chymotrypsin [2]) | Enzymatic fragments in the presence of chymotrypsin (chymotrypsin [2]) | also measured
KYNEtWR(S-β-D-Glc)ED [5-t-(S-β-D-Glc)] | – | Tyr2-Asn3, Arg7-Ser8 | KY, KYNE-t-WR, NE-t-WR, NE-t-WR-(S-β-D-Glc)-ED, (S-β-D-Glc)-ED | Enzymatic degradation by PROK, substrate decay curves compared (Proteinase K (PROK)): higher than that of 5-t-(β-D-Glc)
KYNE(t-β-D-Glc)WRSED [5-t-(β-D-Glc)] | – | Tyr2-Asn3, Arg7-Ser8 | KY, NE-(t-β-D-Glc)-WR, NE-(t-β-D-Glc)-WRSED, SED | Enzymatic degradation by PROK, substrate decay curves compared (Proteinase K (PROK)): nearly identical
KYNE(t-β-L-Rib)WRSED [5-t-(β-L-Rib), 5-t glycosylated with β-L-Ribose at Thr5] | – | Tyr2-Asn3, Arg7-Ser8 | KY, KYNE(t-β-L-Rib)-WR, NE-(t-β-L-Rib)-WR, NE-(t-β-L-Rib)-WRSED, SED | Substrate decay rate constant in the presence of chymotrypsin (chymotrypsin [3]): 0.144 h⁻¹; Enzymatic degradation by chymotrypsin, compared with 5-t (chymotrypsin [3]): digested more efficiently than 5-t; Enzymatic degradation by PROK, substrate decay curves compared (Proteinase K (PROK)): more pronounced inhibitory effect on peptide enzymatic degradation compared to D-ribose
